The values that follow are results of earlier work, collected in patent US6635757B1, “Process for preparing cyclodextrin inclusion complex” (Vittal Mallya Scientific Research Foundation, priority 2001, dated 2003).

Data set [1] deals with insects.

In the case of `C/C=C(\C)C(=O)O[C@H]1C[C@@H](OC(C)=O)[C@@]2(C(=O)OC)CO[C@H]3[C@@H](O)[C@@](C)([C@]45O[C@@]4(C)[C@@H]4C[C@H]5O[C@@H]5OC=C[C@@]54O)[C@H]4[C@]1(CO[C@]4(O)C(=O)OC)[C@@H]32` [Azadirachtin-A], the “Activity compared with NSKE (containing azadirachtin-A<70%)” value in data set [1] (azadirachtin-A of 99% purity) is “not as active as NSKE”.
On to `C/C=C(\C)C(=O)O[C@H]1C[C@@H](OC(C)=O)[C@@]2(C(=O)OC)CO[C@H]3[C@@H](O)[C@@](C)([C@]45O[C@@]4(C)[C@H]4C[C@@H]5O[C@@H]5OC=C[C@@]54O)[C@H]4[C@]1(CO[C@]4(O)C(=O)OC)[C@@H]32` [Azadirachtin], for which the Sensitivity to sunlight entry is recorded as “extremely sensitive”. The “Physiological concentration required to elicit growth retardation” value in data set [1] (varies from species to species) is 1-100 ppm.
